Earlier results, collected in patent US4024245A, “Antibiotic A-30912 and process for production thereof” (priority 1976, dated 1977).

System: dermatophytes
Settings: F. Benz et al., Helv. Chim. Acta 57, 2459-2477 (1974)

For Echinocandin B, the activity against dermatophytes is listed as “inactive against dermatophytes”.
